Here are results for three compounds from patent US20090304816A1, “METHOD AND COMPOSITION FOR TREATING AND DIAGNOSING RESTLESS LEGS SYNDROME” (CEREUSCIENCE AB, priority 2005, published 2009).

The subject of data set [1] is patients with moderate to severe RLS/PMLS. The settings on record: both patients; pramipexole 0.35 mg once daily for 21 days.
Protocol: Due to remaining RLS complaints iron sucrose therapy in the dosage 500 mg i.v. twice, was introduced during one week (FIG. 1; C).
For data set [2] the test system is unchanged. The settings on record: pramipexole 0.35 mg once daily evening dose for 21 days.
Data set [3] has the same test system. Put plainly: IRLSS score in two patients with RLS/PLMS, Example 1. Type of data set: in vivo. An excerpt: (§1) RLS and PLMS are typically diagnosed by patient history and standardized questionnaires as well as by polysomnographic evaluation.
For data set [4], the system named is patient with clinical symptoms of RLS. Put plainly: Side effects and augmentation in a third patient with RLS, Example 2. Type of data set: in vivo. The settings on record: iron dextran 200 mg daily. On the procedure: (§2) A subsequent clinical observational study included a patient with clinical symptoms of RLS and an IRLSS score of 26 on the diagnostic evaluation under treatment with L-dopa (levodopa) and carbidopa (Sinernet®, fixed combination dosage of 100 mg L-dopa and 25 mg carbidopa) (FIG. 2; A). The patient needed to be treated with altogether three tablets per evening in order to obtain acceptable symptom relief (IRLSS score 4. FIG. 2; B). […] An attempt to discontinue dopaminergic treatment altogether failed. Following this discontinuation there was a substantial symptom relapse (IRLSS score 15. FIG. 2; E).

Data set [5] has the same test system. The data set is described as follows: IRLSS score in a third patient with RLS, Example 2. Type of data set: in vivo. The settings on record: iron dextran, after discontinuation of dopaminergic treatment (FIG. 2; E). On the procedure:
as §1, §2

Where two headings read alike, the source gives them in different places.

On to `CCCN[C@H]1CCc2nc(N)sc2C1` [Pramipexole], for which the side effects entry in data set [1] is “No side effects were reported”. The values for the PLMI in data set [2] (patient with baseline PLMI 3) and in data set [2] (patient with baseline PLMI 17) were 0 and 2, respectively. The IRLSS score in data set [3] (patient with baseline IRLSS 28, pramipexole 0.35 mg once daily, day 21 (FIG. 1; B)) is recorded as 17; in data set [3] (patient with baseline IRLSS 30, pramipexole 0.35 mg once daily, day 21 (FIG. 1; B)), 15.
For the compound iron dextran, the adverse effects entry in data set [4] is listed as “did not cause any adverse effects”. Also, in data set [5], the IRLSS score came to 15.
For the compound iron sucrose, the IRLSS score in data set [3] (patient with baseline IRLSS 28, after iron sucrose infusions, pramipexole discontinued for one week (FIG. 1; D)) stood at 18; in data set [3] (patient with baseline IRLSS 30, after iron sucrose infusions, pramipexole discontinued for one week (FIG. 1; D)), 14.
